Test results taken from patent publication US20040063725A1, “Novel n(phenylsulphonyl)glycine derivatives and their therapeutic use” (priority 2001, published 2004).
Where a name gives a salt, the structure may show the parent alone.

Test system: formaldehyde-induced pain
Test: formaldehyde-induced pain test in the mouse (formalin test)
Assay type: in vivo
Settings: formaldehyde 0.92% in paw, licking time 15 to 30 min
Method: The compounds of the present invention were evaluated for their analgesic property in the formaldehyde-induced pain test in the mouse (Shibata, M., Ohkubo, T., Takahashi, H. & R. Inoki. Modified formalin test: characteristic biphasic pain response. Pain, 38. 347-352). In summary, an administration of formaldehyde (0.92% in physiological serum) is made in the front paw and the licking time, which reflects the intensity of the pain, is recorded from 0 to 5 min (1st phase) and from 15 to 30 min (2nd phase) after the injection. The percentage inhibition of the second phase of licking induced by the formaldehyde is given, for some compounds according to the invention, in the following Table: […]

Compound | % inhibition of the 2nd licking phase (10 mg/kg s.c.) [%] | % inhibition of the 2nd licking phase (30 mg/kg s.c.) [%] | further results
Cc1c(Cl)ccc(S(=O)(=O)N(CCc2ccccc2)CC(=O)NCC(=O)N(CCC2CCNCC2)Cc2ccc(C(=N)N)cc2)c1Cl.O=C(O)C(F)(F)F.O=C(O)C(F)(F)F [Example 24, N-[2-[[[4-(aminoiminomethyl)phenyl]methyl](4-piperidinylethyl)amino]-2-oxoethyl]-2-[[(2,4-dichloro-3-methylphenyl)sulphonyl](2-phenylethyl)-amino]acetamide, bis Trifluoroacetate] | 76 | – | –
Cc1c(Cl)ccc(S(=O)(=O)N(CCc2ccccc2)CC(=O)NCC(=O)N(CCCN(C)C)Cc2ccc(C3=NCCN3)cc2)c1Cl [Example 35, 2-[[(2,4-dichloro-3-methylphenyl)sulphonyl](2-phenylethyl)amino]-N-[2-[[[4-(4,5-dihydro-1H-imidazol-2-yl)phenyl]methyl][3-(dimethylamino)propyl]amino]-2-oxoethyl]acetamide, Dihydrochloride] | 92 | – | –
Cc1c(Cl)ccc(S(=O)(=O)N(CCc2ccccc2)CC(=O)NCC(=O)N(CCCCN2CCCC2)CCCc2cnc[nH]2)c1Cl [Example 82, 2-[[(2,4-dichloro-3-methylphenyl)sulphonyl](2-phenylethyl)amino]-N-[2-[[3-(1H-imidazol-5-yl)propyl][4-(1-pyrrolidinyl)butyl]amino]-2-oxo-ethyl]acetamide, Dihydrochloride] | – | – | % inhibition of the 2nd licking phase (10 mg/kg i.p.): 63%
N-[2-[(4-aminobutyl)(4-piperidinylmethyl)amino]-2-oxoethyl]-2-[[(2,4-dichloro-3-methylphenyl)sulphonyl](2-phenylethyl)amino]acetamide, Bis Trifluoroacetate [Example 25] | – | 87 | –
N-[2-[[[4-(aminoiminomethyl)phenyl]methyl][3-(dimethylamin)propyl]amino]-2-oxoethyl]-2-[[(2,4-dichloro-3-methylphenyl)sulphonyl](2-phenylethyl)amino]acetamide, Dihydrochloride [Example 23] | – | 98 | –
